Results as given in patent US20240409557A1, “5,6-FUSED AND 6,6-FUSED BICYCLIC ALCOHOLS AND ETHERS AND COMPOSITIONS FOR USE AS 15-PROSTAGLANDIN DEHYDROGENASE MODULATORS” (AMGEN INC., priority 2023, published 2024).

Tests used:
[1] = target: T1, human recombinant 15-PGDH (Homo sapiens, UniProt P15428); test: Recombinant 15-PGDH enzymatic inhibition assay (PGDH-Lumi, NADH signal); assay type: biochemical; settings: recombinant 15-PGDH; 15 min pre-incubation, 60 min reaction with PGE2 and NAD+, NADH signal
T1 sequence (P15428 1-266): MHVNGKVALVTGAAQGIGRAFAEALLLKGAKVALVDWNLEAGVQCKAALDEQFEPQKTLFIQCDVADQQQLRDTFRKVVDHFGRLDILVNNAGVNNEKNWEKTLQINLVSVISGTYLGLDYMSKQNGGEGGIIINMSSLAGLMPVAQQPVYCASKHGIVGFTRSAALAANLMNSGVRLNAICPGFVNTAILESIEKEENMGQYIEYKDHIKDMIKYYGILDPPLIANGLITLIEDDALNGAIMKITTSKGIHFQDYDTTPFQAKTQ
Procedure, shortened: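 Recombinant 15-PGDH pre-incubated 15 min at room temperature with compound (22 concentrations, 2-fold dilutions) in 50 mM Tris pH 7.5, 0.01% Tween-20, […].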

15-PGDH in A549 cells = target: T2, 15-PGDH in A549 cells (Homo sapiens, UniProt P15428); test: A549 cellular 15-PGDH assay (PGE2 accumulation, HTRF); assay type: cell-based; settings: interleukin-stimulated, inhibitor 24 hrs, PGE2 by competitive HTRF, read-out: A549 Cell Assay IC50
T2 construct: endogenous in cells; host or cells: A549
T2 sequence (P15428 1-266): T1 sequence (P15428 1-266)
Text: This assay was used for the quantification of IL-13 induced Native Prostaglandin E2 (PGE2) produced by A549 cells (epithelial cells from lung carcinoma) in cell culture supernatants. […] PGE2 was detected in a competitive HTRF assay by using anti PGE2 antibody labeled with Europium cryptate, and PGE2 labeled with […]. The PGE2 present in the sample competes with the binding between the two HTRF detection solutions (reagents) and thereby prevents FRET from occurring. The specific signal is inversely proportional to the PGE2 concentration. From this binding data, IC50 values were calculated.

| Structure (SMILES) | IC50 [1] [nM] | IC50 (15-PGDH in A549 cells) [nM] |
| --- | --- | --- |
| Cc1c([C@H](O)C2CCOCC2)sc2nc(-c3cnc4nn(C)cc4c3)ccc12 (single isomer, unassigned) [Compound B90R] | 0.952 | 0.857 |
| Cc1c([C@@H](O)C2CCOCC2)sc2nc(-c3cnc4nn(C)cc4c3)ccc12 (single isomer, unassigned) [Compound B90S] | 488 | 237 |
| Cn1cc2cc(-c3ccc4cc([C@H](O)C56CC(C(F)(F)F)(C5)C6)sc4n3)cnc2n1 (single isomer, unassigned) [Compound B91R] | 0.544 | 1.09 |
| Cn1cc2cc(-c3ccc4cc([C@@H](O)C56CC(C(F)(F)F)(C5)C6)sc4n3)cnc2n1 (single isomer, unassigned) [Compound B91S] | 34.9 | 2.37 |
| Cc1c([C@@H](CO)C2CC(F)(F)C2)sc2nc(-c3cnc4nn(C)cc4c3)ccc12 (single isomer, unassigned) [Compound B93R] | 174 | 245 |
| Cc1c([C@H](CO)C2CC(F)(F)C2)sc2nc(-c3cnc4nn(C)cc4c3)ccc12 (single isomer, unassigned) [Compound B93S] | 2.64 | 14.2 |
| Cn1cc2cc(-c3ccc4cc([C@H](O)[C@H]5CCC5(F)F)sc4n3)cnc2n1 (single isomer, unassigned) [Compound B94RR] | 0.34 | 0.661 |
| Cn1cc2cc(-c3ccc4cc([C@H](O)[C@@H]5CCC5(F)F)sc4n3)cnc2n1 (single isomer, unassigned) [Compound B94RS] | 0.325 | 0.657 |
| Cn1cc2cc(-c3ccc4cc([C@@H](O)[C@H]5CCC5(F)F)sc4n3)cnc2n1 (single isomer, unassigned) [Compound B94SR] | 0.64 | 2.64 |
| Cn1cc2cc(-c3ccc4cc([C@@H](O)[C@@H]5CCC5(F)F)sc4n3)cnc2n1 (single isomer, unassigned) [Compound B94SS] | 1.23 | 3.63 |
| Cn1cc2cc(-c3ccc4c(N)c([C@H](O)C5CC(F)(F)C5)sc4n3)cnc2n1 (single isomer, unassigned) [Compound B95R] | 1.21 | 1.64 |
| Cn1cc2cc(-c3ccc4c(N)c([C@@H](O)C5CC(F)(F)C5)sc4n3)cnc2n1 (single isomer, unassigned) [Compound B95S] | 6.43 | 9.46 |
| Cn1cc2cc(-c3ccc4cc([C@]5(O)C[C@]6(CCO6)C5)sc4n3)cnc2n1 (single isomer, unassigned) [Compound C56C, cis-6-(6-(2-methyl-2H-pyrazolo[3,4-b]pyridin-5-yl)thieno[2,3-b]pyridin-2-yl)-1-oxaspiro[3.3]heptan-6-ol] | 0.423 | 0.18 |
| Cn1cc2cc(-c3ccc4cc([C@]5(O)C[C@@]6(CCO6)C5)sc4n3)cnc2n1 (single isomer, unassigned) [Compound C56T, trans-6-(6-(2-methyl-2H-pyrazolo[3,4-b]pyridin-5-yl)thieno[2,3-b]pyridin-2-yl)-1-oxaspiro[3.3]heptan-6-ol] | 1.18 | 0.997 |
| COC[C@H]1C[C@](O)(c2cc3ccc(-c4cnc5nn(C)cc5c4)nc3s2)C1 (single isomer, unassigned) [Compound C58C, cis-3-(methoxymethyl)-1-(6-(2-methyl-2H-pyrazolo[3,4-b]pyridin-5-yl)thieno[2,3-b]pyridin-2-yl)cyclobutanol] | 0.889 | 0.519 |
| CO[C@]1(C)C[C@](O)(c2cc3ccc(-c4cnc5nn(C)cc5c4)nc3s2)C1 (single isomer, unassigned) [Compound C59T, trans-3-methoxy-3-methyl-1-(6-(2-methyl-2H-pyrazolo[3,4-b]pyridin-5-yl)thieno[2,3-b]pyridin-2-yl)cyclobutanol] | 0.727 | 0.16 |
| Cn1cc2cc(-c3ccc4cc([C@]5(O)C[C@@H](C6CC6)C5)sc4n3)cnc2n1 (single isomer, unassigned) [Compound C62C, cis-3-cyclopropyl-1-(6-(2-methyl-2H-pyrazolo[3,4-b]pyridin-5-yl)thieno[2,3-b]pyridin-2-yl)cyclobutanol] | 0.366 | 0.0321 |
| C[C@H]1CC[C@]1(O)c1cc2ccc(-c3cnc4nn(C)cc4c3)nc2s1 (single isomer, unassigned) [Compound C64RS] | 20.9 | 3.25 |
| Cn1cc2cc(-c3ccc4cc([C@@]5(O)CCC5(C)C)sc4n3)cnc2n1 (single isomer, unassigned) [Compound C65R] | 32.6 | 3.45 |
| CO[C@]1(C(F)(F)F)C[C@@](O)(c2cc3ccc(-c4cnc5nn(C)cc5c4)nc3s2)C1 (single isomer, unassigned) [Compound C66C, cis-3-methoxy-1-(6-(2-methyl-2H-pyrazolo[3,4-b]pyridin-5-yl)thieno[2,3-b]pyridin-2-yl)-3-(trifluoromethyl)cyclobutanol] | 0.852 | 0.206 |
| CO[C@]1(C(F)(F)F)C[C@](O)(c2cc3ccc(-c4cnc5nn(C)cc5c4)nc3s2)C1 (single isomer, unassigned) [Compound C66T, trans-3-methoxy-1-(6-(2-methyl-2H-pyrazolo[3,4-b]pyridin-5-yl)thieno[2,3-b]pyridin-2-yl)-3-(trifluoromethyl)cyclobutanol] | 0.47 | 0.0223 |
| CO[C@@H]1CC[C@]1(O)c1cc2ccc(-c3cnc4nn(C)cc4c3)nc2s1 (single isomer, unassigned) [Compound C70RR] | 403 | 117 |
| CO[C@H]1CC[C@]1(O)c1cc2ccc(-c3cnc4nn(C)cc4c3)nc2s1 (single isomer, unassigned) [Compound C70RS] | 3860 | > 750 |
| CO[C@@H]1CC[C@@]1(O)c1cc2ccc(-c3cnc4nn(C)cc4c3)nc2s1 (single isomer, unassigned) [Compound C70SR] | 2260 | 172 |
| CO[C@H]1CC[C@@]1(O)c1cc2ccc(-c3cnc4nn(C)cc4c3)nc2s1 (single isomer, unassigned) [Compound C70SS] | 2280 | 316 |
| Cn1cc2cc(-c3ccc4cc([C@]5(O)C[C@]6(CC6(F)F)C5)sc4n3)cnc2n1 (single isomer, unassigned) [Compound C88C, cis-1,1-difluoro-5-(6-(2-methyl-2H-pyrazolo[3,4-b]pyridin-5-yl)thieno[2,3-b]pyridin-2-yl)spiro[2.3]hexan-5-ol] | 0.503 | 0.455 |
| Cn1cc2cc(-c3ccc4cc([C@]5(O)C[C@@]6(CC6(F)F)C5)sc4n3)cnc2n1 (single isomer, unassigned) [Compound C88T, trans-1,1-difluoro-5-(6-(2-methyl-2H-pyrazolo[3,4-b]pyridin-5-yl)thieno[2,3-b]pyridin-2-yl)spiro[2.3]hexan-5-ol] | 0.347 | 0.589 |
| Cn1cc2cc(-c3ccc4nc([C@]5(O)C[C@@](C)(C#N)C5)sc4n3)cnc2n1 (single isomer, unassigned) [Compound C91C, cis-3-hydroxy-1-methyl-3-(5-(2-methyl-2H-pyrazolo[3,4-b]pyridin-5-yl)[1,3]thiazolo[5,4-b]pyridin-2-yl)cyclobutanecarbonitrile] | 0.799 | 2.22 |
